Target: hDGAT2 (Homo sapiens (Human), UniProt Q96PD7)
Test: DGAT2 Enzymatic Activity Assay (triolein formation, LC/MS/MS)
Format: biochemical
Conditions: Sf-9 membrane prep expressing hDGAT2; 25 μM diolein, 10 μM oleoyl-CoA; room temperature; read-out: IC50 values for inhibition of DGAT2
In short: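 Untagged hDGAT2 in Sf-9 membranes (10 ng/μL) with 25 μM diolein and 10 μM oleoyl-CoA in 100 mM Tris·Cl pH 7.0, 20 mM MgCl2, 5% ethanol at room temperature. Triolein measured by LC/MS/MS against spiked internal standard; IC50 from 4-parameter sigmoidal fit of % inhibition.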

Chain of hDGAT2 (Q96PD7 whole entry): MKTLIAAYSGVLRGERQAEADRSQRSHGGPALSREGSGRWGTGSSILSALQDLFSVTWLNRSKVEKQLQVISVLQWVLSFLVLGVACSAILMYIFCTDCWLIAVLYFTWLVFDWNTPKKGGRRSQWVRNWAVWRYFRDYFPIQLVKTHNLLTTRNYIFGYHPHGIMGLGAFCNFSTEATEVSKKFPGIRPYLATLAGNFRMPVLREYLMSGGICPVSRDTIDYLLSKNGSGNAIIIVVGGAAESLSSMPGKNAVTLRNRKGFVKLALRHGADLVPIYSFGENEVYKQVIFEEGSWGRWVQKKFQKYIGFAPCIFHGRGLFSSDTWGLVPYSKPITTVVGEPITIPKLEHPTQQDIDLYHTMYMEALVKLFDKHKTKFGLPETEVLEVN

| SMILES | IC50 [nM] |
| --- | --- |
| CC(C)(C)NC(=O)N1CCc2c(-c3cccc(C(F)(F)F)c3)ccc(C(=O)NCCn3cnnc3)c2C1 [Example 71, N^8-(2-(4H-1,2,4-triazol-4-yl)ethyl)-N^2-(tert-butyl)-5-(3-(trifluoromethyl)phenyl)-3,4-dihydroisoquinoline-2,8(1H)-dicarboxamide] | 178 |
| CC(NC(=O)c1ccc(-c2cccc(C(F)(F)F)c2)c2c1CN(C(=O)NC(C)(C)C)CC2)c1nncs1 (centres unmarked) [Example 72, N^8-(1-(1,3,4-thiadiazol-2-yl)ethyl)-N^2-(tert-butyl)-5-(3-(trifluoromethyl)phenyl)-3,4-dihydroisoquinoline-2,8(1H)-dicarboxamide] | 659 |
| CC(NC(=O)c1ccc(-c2cccc(OC(F)(F)F)c2)c2c1CN(C(=O)NC(C)(C)C)CC2)c1nc(-c2ccccn2)no1 (centres unmarked) [Example 73, N^2-(tert-butyl)-N^8-(1-(3-(pyridin-2-yl)-1,2,4-oxadiazol-5-yl)ethyl)-5-(3-(trifluoromethoxy)phenyl)-3,4-dihydroisoquinoline-2,8(1H)-dicarboxamide] | 511 |
| CC(C)(C)NC(=O)N1CCc2c(-c3cccc(OC(F)(F)F)c3)ccc(C(=O)NCc3cn4ccsc4n3)c2C1 [Example 74, N^2-(tert-butyl)-N^8-(imidazo[2,1-b]thiazol-6-ylmethyl)-5-(3-(trifluoromethoxy)phenyl)-3,4-dihydroisoquinoline-2,8(1H)-dicarboxamide] | 1540 |
| CC(C)(C)NC(=O)N1CCc2c(-c3cccc(OC(F)(F)F)c3)ccc(C(=O)NCc3nnc4n3CCC4)c2C1 [Example 75, N^2-(tert-butyl)-N^8-((6,7-dihydro-5H-pyrrolo[2,1-c][1,2,4]triazol-3-yl)methyl)-5-(3-(trifluoromethoxy)phenyl)-3,4-dihydroisoquinoline-2,8(1H)-dicarboxamide] | 2490 |
| CC(C)(C)NC(=O)N1CCc2c(-c3cccc(OC(F)(F)F)c3)ccc(C(=O)NCCn3ccnn3)c2C1 [Example 76, N^8-(2-(1H-1,2,3-triazol-1-yl)ethyl)-N^2-(tert-butyl)-5-(3-(trifluoromethoxy)phenyl)-3,4-dihydroisoquinoline-2,8(1H)-dicarboxamide] | 2580 |
| CC(CNC(=O)c1ccc(-c2cccc(OC(F)(F)F)c2)c2c1CN(C(=O)NC(C)(C)C)CC2)c1cnco1 (centres unmarked) [Example 77, N^2-(tert-butyl)-N^8-(2-(oxazol-5-yl)propyl)-5-(3-(trifluoromethoxy)phenyl)-3,4-dihydroisoquinoline-2,8(1H)-dicarboxamide] | 867 |

Now from value to compound:

| IC50 [nM] | SMILES |
| --- | --- |
| 1180 | CC(CNC(=O)c1ccc(-c2cccc(OC(F)(F)F)c2)c2c1CN(C(=O)NC(C)(C)C)CC2)c1cccnc1 (centres unmarked) [Example 78, N^2-(tert-butyl)-N^8-(2-(pyridin-3-yl)propyl)-5-(3-(trifluoromethoxy)phenyl)-3,4-dihydroisoquinoline-2,8(1H)-dicarboxamide] |
| 149 | CC(C)(C)NC(=O)N1CCc2c(-c3cccc(OC(F)(F)F)c3)ccc(C(=O)NCc3cccc4ccnn34)c2C1 [Example 79, N^2-(tert-butyl)-N^8-(pyrazolo[1,5-a]pyridin-7-ylmethyl)-5-(3-(trifluoromethoxy)phenyl)-3,4-dihydroisoquinoline-2,8(1H)-dicarboxamide] |
| 524 | CC(C)(C)NC(=O)N1CCc2c(-c3cccc(OC(F)(F)F)c3)ccc(C(=O)NCc3cc(-c4ccccn4)no3)c2C1 [Example 80, N^2-(tert-butyl)-N^8-((3-(pyridin-2-yl)isoxazol-5-yl)methyl)-5-(3-(trifluoromethoxy)phenyl)-3,4-dihydroisoquinoline-2,8(1H)-dicarboxamide] |
| 370 | CC(C)(C)NC(=O)N1CCc2c(-c3cccc(OC(F)(F)F)c3)ccc(C(=O)NCc3cnn4ccccc34)c2C1 [Example 81, N^2-(tert-butyl)-N^8-(pyrazolo[1,5-a]pyridin-3-ylmethyl)-5-(3-(trifluoromethoxy)phenyl)-3,4-dihydroisoquinoline-2,8(1H)-dicarboxamide] |
